Results reported in PMC11077991, “The small molecule CBR-5884 inhibits the Candida albicans phosphatidylserine synthase” (mBio, 2024).

What was measured:
[1] = precipitation in MIC media; assay type: physicochemical
[2] = target: purified hexameric Cho1 (Candida albicans, UniProt A0A1D8PF32); assay: kinetic curves of purified hexameric Cho1 (radioactive PS synthase assay); assay type: biochemical
Procedure: For the kinetic curves, the specific activity was measured in the reaction containing 50 mM Tris-HCl (pH 8.0), 1 mM MnCl2, 0.025%–0.3% Triton X-100 and 0.033%–0.07% digitonin with 0.75–1.5 µg purified Cho1 protein. The concentrations of 18:1 CDP-DAG (Avanti, cat# 870520) and serine are indicated in the graphs, and the mol % of CDP-DAG was kept between 4.2% and 5.0% for the curve where CDP-DAG was varied (Fig. 6C and D) and at 4.8% (200 μM) for the curve where serine was varied (Fig. 6B). The concentrations of CBR-5884 used in each reaction are indicated in the graph, and CBR-5884 was incubated with purified Cho1 protein in the presence of CDP-DAG on ice for at least 2 h before the addition of L-[^3H]-serine. The reaction was stopped at 20, 40, and 60 min, and specific activity was calculated based on the slope of linear PS production, representing the initial velocity.

[3] = assay type: physicochemical; conditions: 12 h, 170 µM
Procedure: However, it was observed that the impact of CBR-5884 on cell growth was only temporary, with a delay lasting 12 h. […] To disentangle these two possibilities, experiments were conducted where both CBR-5884 and DMSO were subjected to 12 h of agitation at 30°C before being introduced to live cells. The growth of these cells was monitored over the next 14 h, with an OD600 measurement every 2 h, to assess the persistence of CBR-5884’s efficacy (Fig. 4F); in the meantime, cells that had been grown in 170 µM CBR-5884 for 12 and 24 h were transferred into fresh media containing new CBR-5884, which was allowed to grow for another 14 h, to probe the rising of resistance (Fig. 4G). In both experimental setups, cells grew slowly in the presence of CBR-5884 compound compared to DMSO control.
The growth curves with LOC14 and CBR-5884 treatments were measured from 2 to 30 h with OD600 measurements every 2 h. A final concentration of 170 µM CBR-5884, 430 µM LOC14, and 5 mM serine was added into each group as indicated. To test the stability of CBR-5884, minimal medium supplemented with 170 µM CBR-5884 or equivalent DMSO was agitated for 12 h before the introduction of wildtype C. albicans SC5314 strain, and growth curves were recorded from 0 to 14 h with OD600 measurement every 2 h. […] The growth curves were recorded from 0 to 14 h with OD600 measurement every 2 h. […]

[4] = tested on: purified Cho1; assay: CBR-5884 washout assay (radioactive PS synthase assay); assay type: biochemical, Candida albicans; conditions: 100 µM preincubated 2 h, buffer exchange
Procedure: For CBR-5884 washout assays, purified Cho1 was incubated with CBR-5884 at a final concentration of 100 µM, or equivalent DMSO, in 100 µL volume on ice for 2 h. The CBR-5884 was then washed out by exchanging with 4 mL 50 mM Tris-HCl at pH 8.0 and 0.1% digitonin three times in the Amicon Ultra Centrifugal Filter (10 kDa MWCO). The sample was concentrated to the volume of approximately 500 µL, and protein concentration was determined using the Pierce detergent-compatible Bradford assay kit. The reaction was set up with 50 mM Tris-HCl (pH 8.0), 1 mM MnCl2, 0.1% Triton X-100, 0.1% digitonin, 0.1 mM (4.7 mol %), 16:0 CDP-DAG (Avanti, cat# 870510), and 10 mM L-serine [spiked with 5% (by volume) L-[3H]-serine (15 Ci/mmol)] at a total volume of 100 µL, in the presence of 100 µM CBR-5884 or equivalent DMSO solvent. The reaction was stopped at 20, 40, and 60 min, and specific activity was calculated based on the slope of linear PS production, representing the initial velocity.

[5] = tested on: in vivo PS production in wild-type C. albicans; assay: metabolic labeling of PS using probe C-L-SerN3; assay type: cell-based, Candida albicans; conditions: 170 µM CBR-5884, 1.5 mM probe
Procedure: The C-L-SerN3 probe [(S)-1-((3-azidopropyl)amino)-3-hydroxy-1-oxopropan-2-aminium chloride] was synthesized as described in reference ([59]). Cells grown overnight in YPD were washed three times in H2O and inoculated into minimal media at a starting OD600 of 0.05. Cells were shaken for 5 h before 1.5 mM C-L-SerN3 probe was added, along with 170 µM CBR-5884 or an equivalent volume of DMSO. Cells were then incubated for another 5 h before being washed three times with H2O, and 5% BSA in 1× PBS was used to treat cells for 20 min. The cells were then washed three times with 1× PBS and then resuspended to OD600 of 0.6 in 1 mL PBS + 1 µM AZDye 488 DBCO (Click chemistry tools, cat# 1278-1). Cells were covered with aluminum foil and rocked for 1 h, and the dye was removed by pelleting the cells at 5,000 × g followed by washing with shaking at 1,000 rpm three times in 1× PBS, and resuspended in 200 µL Fluoromount-G mounting medium (cat# 00-4958-02). For each treatment, 10 µL of cells was added to a glass slide and 3 µL fresh Fluoromount-G mounting medium was used to mix the sample. […] The samples were excited using light at a wavelength of 488 nm, and the resulting fluorescence was captured within the range of 498–550 nm using a HyD detector. […] A total of 40 cells from at least 10 images were used for the quantification in ImageJ software.

[6] = tested on: cho1ΔΔ strain; assay: growth of cho1ΔΔ strain in rich YPD media; assay type: cell-based, Candida albicans

Chain of purified hexameric Cho1 (A0A1D8PF32 entry or part of it): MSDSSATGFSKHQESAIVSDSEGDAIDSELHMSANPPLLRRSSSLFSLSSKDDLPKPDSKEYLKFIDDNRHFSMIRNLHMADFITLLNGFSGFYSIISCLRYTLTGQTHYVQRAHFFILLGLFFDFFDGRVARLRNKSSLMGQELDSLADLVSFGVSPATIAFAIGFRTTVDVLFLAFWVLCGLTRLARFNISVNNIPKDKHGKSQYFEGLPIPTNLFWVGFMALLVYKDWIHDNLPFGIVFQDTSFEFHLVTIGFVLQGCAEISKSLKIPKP

In the case of `CCOC(=O)c1sc(NC(=O)c2ccco2)c(SC#N)c1C` [CBR-5884], the “solubility in MIC media” value [1] is reported as “precipitated at high concentrations”, the Ki [2] is reported as 1550 nM and the “inhibition of Cho1 activity at sub-saturating serine” value ([2]; serine 20 mM, CDP-DAG 25-300 µM) is reported as “observed”. The “inhibition of Cho1 activity at saturating serine” value ([2]; serine 32 mM, CDP-DAG varied) was “inhibition was overcome”, the pattern of inhibition ([2]; serine varied, CDP-DAG 200 µM) was “competitive inhibition” and the “stability and effectiveness under agitation” value [3] was “at least 12 h”. The “inhibition after preincubation and washout” value [4] was “absence of inhibition”, the “C-L-SerN3 fluorescence on the periphery of the cell” value [5] was “significantly diminished” and the “growth of the cho1ΔΔ strain” value [6] was “decreases growth”.
